This is an account of results in US8999956B2, “N-[(het)arylalkyl)] pyrazole(thio)carboxamides and their heterosubstituted analogues” (Bayer Intellectual Property GmbH, priority 2010, dated 2015).

The subject of one data set is Sphaerotheca fuliginea. As to the kind of experiment: In vivo preventive test on Sphaerotheca fuliginea (cucumber). The conditions noted are these: 500 ppm of active ingredient, evaluated 7 days after inoculation. In outline: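 Young cucumber plants sprayed with compound (in DMF with alkylarylpolyglycolether emulsifier, diluted in water) at the stated application rate. Inoculated one day later with aqueous Sphaerotheca fuliginea spore suspension. Plants then held in greenhouse at approximately 23° C and approximately 70% relative humidity.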

For the next data set, the system named is Alternaria solani. The experiment in a line: In vivo preventive test on Alternaria solani (tomato). The conditions noted are these: 500 ppm of active ingredient, evaluated 7 days after inoculation. In outline: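 Young tomato plants sprayed preventively with compound in DMF/alkylarylpolyglycolether emulsion diluted in water to the stated rate. Inoculation with aqueous Alternaria solani spore suspension one day after treatment.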

For another data set, the system named is Pyrenophora teres. As to the kind of experiment: In vivo preventive test on Pyrenophora teres (barley). The conditions noted are these: 500 ppm of active ingredient, evaluated 7-9 days after inoculation. In outline:
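Compound formulated in N,N-dimethylformamide with alkylaryl polyglycol ether emulsifier and diluted in water, then sprayed on young barley plants at the stated application rate. Plants inoculated one day later with aqueous Pyrenophora teres spore suspension, testing preventive protection.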

A further data set deals with Venturia inaequalis. As to the kind of experiment: In vivo preventive test on Venturia inaequalis (apple scab). The conditions noted are these: 100 ppm of active ingredient, evaluated 10 days after inoculation. The essentials: (§1)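 Young plants sprayed preventively at the stated application rate with compound dissolved in acetone/N,N-dimethylacetamide plus alkylaryl polyglycol ether emulsifier and diluted with water to the desired concentration.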

Another data set has as its system Septoria tritici. The experiment in a line: In vivo preventive test on Septoria tritici (wheat). The conditions noted are these: 500 ppm of active ingredient, evaluated 21 days after inoculation. In outline:
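Compound formulated in N,N-dimethylacetamide with alkylaryl polyglycol ether emulsifier and diluted in water to the stated rate. Young wheat plants sprayed preventively; after the deposit dried, they were inoculated with a Septoria tritici spore suspension.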

Data set [1] has as its system Blumeria graminis fsp. hordei. The experiment in a line: In vivo preventive test on Blumeria graminis (barley). The settings on record: 500 ppm of active ingredient, evaluated 7 days after inoculation. The essentials:
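Active compound taken up in N,N-dimethylacetamide with alkylaryl polyglycol ether emulsifier, then diluted in water to the desired concentration. Young barley plants sprayed at the stated application rate; once the coating had dried, plants were dusted with Blumeria graminis f. sp. hordei spores.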

Data set [2] relates to Fusarium nivale (var. majus). The experiment in a line: In vivo preventive test on Fusarium nivale (wheat). The conditions noted are these: 500 ppm of active ingredient, evaluated 5 days after inoculation. The essentials: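 Young wheat plants sprayed preventively with compound formulated in N,N-dimethylacetamide plus alkylaryl polyglycol ether emulsifier, diluted in water to the stated application rate. After drying, plants were lightly injured by sandblast, then sprayed with a Fusarium nivale (var. majus) conidia suspension.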

In a further data set the test system is Uromyces appendiculatus. The experiment in a line: In vivo preventive test on Uromyces appendiculatus (beans). The settings on record: 100 ppm of active ingredient, evaluated 10 days after inoculation. The essentials:
as §1

The test system of the next data set is Puccinia triticina. As to the kind of experiment: In vivo preventive test on Puccinia triticina (wheat). The conditions noted are these: Table K, 500 ppm of active ingredient, evaluated 8 days after inoculation.
Another data set relates to Botrytis cinerea. As to the kind of experiment: In vivo preventive test on Botrytis cinerea (beans). The settings on record: Table L, 500 ppm of active ingredient, lesion size 2 days after inoculation. The essentials:
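Young bean plants sprayed preventively with compound in acetone/dimethylacetamide/emulsifier diluted in water; after drying, each leaf inoculated with 2 agar pieces bearing Botrytis cinerea. Kept dark at 20° C, 100% humidity; lesion size scored at 2 days as % efficacy (0% = untreated, 100% = no disease).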

For the next data set, the system named is Cochliobolus miyabeanus. As to the kind of experiment: In vivo protective test on Cochliobolus miyabeanus (rice). The conditions noted are these: Table M, 250 ppm of active ingredient, evaluated 4 days after inoculation.
In another data set the test system is Pyricularia oryzae. The conditions noted are these: in vivo.
For data set [3], the system named is aflatoxines produced by Aspergillus parasiticus. The experiment in a line: microbe, parasite or virus in culture. Type of data set: cell-based.
In a further data set the test system is Aspergillus parasiticus. As to the kind of experiment: microbe, parasite or virus in culture. Type of data set: cell-based.
The test system of a further data set is Leptosphaeria nodorum. The experiment in a line: In vivo preventive test on Leptosphaeria nodorum (wheat). The settings on record: 500 ppm of active ingredient, evaluated 7-9 days after inoculation. In outline:
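Compound formulated in N,N-dimethylacetamide with alkylaryl polyglycol ether emulsifier and diluted with water. Young wheat plants were sprayed at the stated application rate, then inoculated one day later with an aqueous spore suspension of L. nodorum.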

Data set [4] in a line: log P by HPLC on reversed-phase column (EEC Directive 79/831 Annex V.A8). Type of data set: physicochemical. The procedure: In table 1, the log P values were determined in accordance with EEC Directive 79/831 Annex V.A8 by HPLC (High Performance Liquid Chromatography) on a reversed-phase column (C18), using the method described below: Temperature: 40° C.; […]
The subject of a further data set is Phakopsora pachyrhizi. The experiment in a line: In vivo protective test on Phakopsora pachyrhizi (soybeans). The conditions noted are these: Table N, 250 ppm of active ingredient, evaluated 11 days after inoculation.
A further data set has as its system Fusarium graminearum. The settings on record: in vivo.

Several values for one entry are separate records, joined by “and”; a condition that tells them apart may be missing. Equal entries are not always repeated. Where two headings read alike, the source gives them in different places.

As to `CC(C)CC(C)C1CCCC1NC(=O)c1c(C(F)F)nn(C)c1F` (mixture of isomers) [Example 315], the Efficacy turned out to be 71% with Sphaerotheca fuliginea; 100% with Alternaria solani; 100% in the data set on Pyrenophora teres; 100% in the data set with Venturia inaequalis; 100% with Septoria tritici; 100% in data set [1]. Moreover, the Efficacy in data set [2] is 100%; with Uromyces appendiculatus it was 100%; in the data set with Puccinia triticina, 95%; in the data set with Botrytis cinerea, 70%; in the data set with Cochliobolus miyabeanus it was 97%; in the data set on Pyricularia oryzae, 95%. Besides, the “% Inhibition of Aflatoxin at 50 μM” value in data set [3] is listed as 100%. The “% Inhibition of fungal growth at 50 μM” value in the data set with Aspergillus parasiticus (50 µM) stood at 100%.
Consider `CON(C(=O)c1c(C(F)F)nn(C)c1F)C(C)CCc1c(Cl)cc(Cl)cc1Cl` (stereo not drawn) [Example 217], for which the Efficacy (with Sphaerotheca fuliginea; in the data set on Pyrenophora teres; with Venturia inaequalis; in the data set on Septoria tritici; in [1]; in data set [2]) was 100% in each case. Moreover, the Efficacy with Leptosphaeria nodorum is listed as 78%; in the data set with Puccinia triticina, 89%; with Cochliobolus miyabeanus it was 98%; with Pyricularia oryzae, 97%. The “% Inhibition of Aflatoxin at 50 μM” value in data set [3] was 100%. Further, in the data set with Aspergillus parasiticus, the “% Inhibition of fungal growth at 50 μM” value turned out to be 100%. This molecule showed a logP in data set [4] of 4.77.
As to `CC(C)CC(C)C1CCCC1NC(=O)c1c(C(F)F)nn(C)c1Cl` (mixture of isomers) [Example 311], the Efficacy was found to be 90% with Sphaerotheca fuliginea; 100% in the data set with Alternaria solani; 100% with Pyrenophora teres; 100% in the data set with Venturia inaequalis; 93% in the data set on Septoria tritici; 100% in [1]. The Efficacy in [2] was determined as 100%; in the data set on Uromyces appendiculatus it was 100%; with Puccinia triticina it was 100%; with Cochliobolus miyabeanus, 97%; in the data set with Phakopsora pachyrhizi, 98%; in the data set with Pyricularia oryzae, 96%. The “% Inhibition of Aflatoxin at 50 μM” value in [3] (50 µM) was 100%. Moreover, the “% Inhibition of fungal growth at 50 μM” value with Aspergillus parasiticus (50 µM) stood at 97%.
Regarding `Cn1nc(C(F)F)c(C(=O)NC2CCCCC2CCC(C)(C)C)c1F` (single isomer, unassigned) [Example 357], the Efficacy (in the data set with Sphaerotheca fuliginea; in the data set with Alternaria solani; in the data set with Pyrenophora teres; in the data set with Venturia inaequalis; in the data set with Septoria tritici; in data set [1]) was 100% each time. The Efficacy in [2] came to 100%; in the data set on Uromyces appendiculatus, 100%; in the data set on Puccinia triticina, 100%; in the data set on Cochliobolus miyabeanus, 93%; in the data set with Phakopsora pachyrhizi, 85%; with Pyricularia oryzae, 97%. The logP in data set [4] is given as 4.50 isomer A.
For `CCCC1CCCCC1NC(=O)c1c(C(F)F)nn(C)c1F` (single isomer, unassigned) [Example 344], the Efficacy is 100% in the data set with Sphaerotheca fuliginea; 100% in the data set with Alternaria solani; 100% in the data set on Pyrenophora teres; 94% in the data set with Septoria tritici; 100% in [1]; 100% in data set [2]. Also, the Efficacy in the data set with Leptosphaeria nodorum is given as 90%; in the data set on Puccinia triticina, 100%; with Botrytis cinerea it was 100%; in the data set on Cochliobolus miyabeanus it was 95%; in the data set with Pyricularia oryzae, 95%. Besides, the “% Inhibition of Aflatoxin at 50 μM” value in [3] amounted to 100%. Further, the “% Inhibition of fungal growth at 50 μM” value in the data set on Aspergillus parasiticus (50 µM) was determined as 89%. This molecule gave a logP in [4] of 3.61 isomer B.
As for `CCCCC1CCCCC1NC(=O)c1c(C(F)F)nn(C)c1F` (single isomer, unassigned) [Example 329], the Efficacy (in the data set on Sphaerotheca fuliginea; with Alternaria solani; in the data set on Pyrenophora teres; in the data set on Venturia inaequalis; with Septoria tritici; in data set [1]) was 100% in each case. For the same molecule, the Efficacy in [2] was 100%; in the data set on Leptosphaeria nodorum it was 90%; in the data set with Uromyces appendiculatus, 100%; in the data set on Puccinia triticina it was 100%; in the data set on Botrytis cinerea, 99%; in the data set on Cochliobolus miyabeanus, 98%. Also, the Efficacy with Pyricularia oryzae is 98%. In [3], the “% Inhibition of Aflatoxin at 50 μM” value was determined as 100%. Moreover, in the data set on Aspergillus parasiticus (50 µM), the “% Inhibition of fungal growth at 50 μM” value was 97%. Further, the logP in data set [4] is given as 3.80 isomer A.
`Cn1nc(C(F)F)c(C(=O)N(CCOc2c(Cl)cccc2Cl)C2CC2)c1Cl` [Example 161]: the Efficacy was 100% in the data set on Pyrenophora teres; 80% in the data set with Septoria tritici; 100% in data set [1]; 86% in the data set on Fusarium graminearum; 90% in the data set with Leptosphaeria nodorum; 90% in the data set on Puccinia triticina. This molecule also returned a logP in [4] of 3.69.
In the case of `CC(C)CC(C)C1CCCCC1NC(=O)c1c(C(F)F)nn(C)c1F` (single isomer, unassigned) [Example 338], the Efficacy (with Sphaerotheca fuliginea; with Alternaria solani; in the data set with Pyrenophora teres; in the data set on Venturia inaequalis; in the data set on Septoria tritici; in [1]) was 100% in each case. The Efficacy turned out to be 100% in [2]; 100% in the data set on Puccinia triticina; 96% with Cochliobolus miyabeanus; 98% with Phakopsora pachyrhizi; 97% in the data set with Pyricularia oryzae. Moreover, the “% Inhibition of Aflatoxin at 50 μM” value in data set [3] is on record as 100%. Also, the “% Inhibition of fungal growth at 50 μM” value in the data set on Aspergillus parasiticus was found to be 100%. The logP in data set [4] is 4.73 isomer B.
For `CCCCC1CCCC1NC(=O)c1c(C(F)F)nn(C)c1F` (stereo not drawn) [Example 306], the Efficacy in the data set on Sphaerotheca fuliginea was 95%; in the data set with Alternaria solani, 100%; in the data set on Pyrenophora teres, 100%; in the data set on Venturia inaequalis, 99%; in data set [1], 100%; in [2], 100%. Also, the Efficacy in the data set on Uromyces appendiculatus worked out at 70%; with Puccinia triticina, 95%; with Botrytis cinerea, 94%; with Cochliobolus miyabeanus, 95%; in the data set on Pyricularia oryzae it was 95%. The “% Inhibition of Aflatoxin at 50 μM” value in [3] amounted to 100%. Besides, the “% Inhibition of fungal growth at 50 μM” value in the data set on Aspergillus parasiticus is 100%. In data set [4], the logP came to 3.59.
In the case of `CC(C)CC(C)C1CCCCC1NC(=O)c1c(C(F)F)nn(C)c1F` (stereo not drawn) [Example 339], the Efficacy with Sphaerotheca fuliginea worked out at 100%; in the data set on Alternaria solani, 100%; in the data set with Pyrenophora teres, 94%; in the data set with Venturia inaequalis it was 100%; with Septoria tritici it was 100%; in data set [1], 100%. Also, the Efficacy is 100% in data set [2]; 70% and 94% in the data set on Leptosphaeria nodorum; 100% in the data set on Uromyces appendiculatus; 100% in the data set on Puccinia triticina; 92% with Cochliobolus miyabeanus; 98% in the data set with Phakopsora pachyrhizi. In the data set with Pyricularia oryzae, this molecule yielded an Efficacy of 98%. For the same molecule, in [3], the “% Inhibition of Aflatoxin at 50 μM” value is given as 100%. Moreover, the “% Inhibition of fungal growth at 50 μM” value in the data set with Aspergillus parasiticus was found to be 100%. The molecule further showed a logP in [4] of 4.54.
